Results on eleven compounds are retold here after ChEMBL document CHEMBL1130094, “Structure-activity relationships for a novel series of pyrido[2,3-d]pyrimidine tyrosine kinase inhibitors” (J Med Chem, 1997).

By IC50 is commonly meant the point on the concentration scale where inhibition reaches its midpoint. Lower therefore signals greater potency. A word on the half-life: it is the time in which the quantity being followed falls by half. Higher therefore signals slow loss.

Data set [1] deals with T1, Platelet-derived growth factor receptor (PDGFr) (Rattus norvegicus, UniProt P20786+Q05030). The experiment in a line: Inhibition of platelet derived growth factor (PDGF) stimulated PDGF-receptor autophosphorylation in rat aortic vascular smooth muscle cells (RAVSMCs).
The target of data set [2] is T1, Platelet-derived growth factor receptor (PDGFr). The experiment in a line: Inhibition of Platelet-derived growth factor receptor (PDGFr) tyrosine kinase in rat aortic vascular smooth muscle cells (RAVSMCs).
In data set [3] the target is Proto-oncogene tyrosine-protein kinase Src (Homo sapiens, UniProt P12931). Nature of the data set: Inhibition of C-src tyrosine kinase.
The next data set addresses Insulin receptor (Homo sapiens, UniProt P06213). The experiment in a line: Inhibition of insulin receptor (InsR) tyrosine kinase.
Data set [4] in a line: The half life in rat plasma after intravenous administration. It counts as ADME, organism-based.
Data set [5] concerns the target T2, Fibroblast growth factor receptor (Homo sapiens, UniProt P22607+P11362+P22455+P21802). Nature of the data set: Inhibition of Fibroblast growth factor receptor (FGFr) tyrosine kinase. It counts as protein assay.
Data set [6] addresses T3, Epidermal growth factor receptor (Homo sapiens, UniProt P00533). Nature of the data set: Inhibition of Epidermal growth factor receptor (EGFr) tyrosine kinase.
In data set [7] the target is T2, Fibroblast growth factor receptor. The experiment in a line: Inhibition of fibroblast growth factor receptor (FGFr) tyrosine kinase. The data set is classed as protein assay.
Data set [8] addresses T3, Epidermal growth factor receptor. The experiment in a line: Inhibition of epidermal growth factor receptor (EGFr) tyrosine kinase.
Data set [9] in a line: Inhibition of vascular smooth muscle cell (VSMC) proliferation at day 8. The data set is classed as functional. The settings on record: Rattus norvegicus, 192 h.

Molecules are shown by their SMILES.

Proto-oncogene tyrosine-protein kinase Src, sequence (P12931 2-536 limits assumed): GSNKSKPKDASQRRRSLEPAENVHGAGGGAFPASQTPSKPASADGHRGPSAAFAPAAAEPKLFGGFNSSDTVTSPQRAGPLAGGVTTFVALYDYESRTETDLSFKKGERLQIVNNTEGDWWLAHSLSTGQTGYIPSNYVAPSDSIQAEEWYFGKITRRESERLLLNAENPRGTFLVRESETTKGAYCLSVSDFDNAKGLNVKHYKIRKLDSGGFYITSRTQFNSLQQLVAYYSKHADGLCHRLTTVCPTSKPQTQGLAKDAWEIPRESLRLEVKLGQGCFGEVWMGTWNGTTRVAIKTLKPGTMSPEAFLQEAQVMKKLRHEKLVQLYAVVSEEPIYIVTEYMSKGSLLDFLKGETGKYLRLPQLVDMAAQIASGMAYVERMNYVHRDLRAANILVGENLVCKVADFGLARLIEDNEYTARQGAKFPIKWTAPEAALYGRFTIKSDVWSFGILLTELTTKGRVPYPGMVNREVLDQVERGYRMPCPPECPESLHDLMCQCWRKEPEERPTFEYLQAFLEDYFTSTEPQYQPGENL
T3 sequence (P00533 whole entry): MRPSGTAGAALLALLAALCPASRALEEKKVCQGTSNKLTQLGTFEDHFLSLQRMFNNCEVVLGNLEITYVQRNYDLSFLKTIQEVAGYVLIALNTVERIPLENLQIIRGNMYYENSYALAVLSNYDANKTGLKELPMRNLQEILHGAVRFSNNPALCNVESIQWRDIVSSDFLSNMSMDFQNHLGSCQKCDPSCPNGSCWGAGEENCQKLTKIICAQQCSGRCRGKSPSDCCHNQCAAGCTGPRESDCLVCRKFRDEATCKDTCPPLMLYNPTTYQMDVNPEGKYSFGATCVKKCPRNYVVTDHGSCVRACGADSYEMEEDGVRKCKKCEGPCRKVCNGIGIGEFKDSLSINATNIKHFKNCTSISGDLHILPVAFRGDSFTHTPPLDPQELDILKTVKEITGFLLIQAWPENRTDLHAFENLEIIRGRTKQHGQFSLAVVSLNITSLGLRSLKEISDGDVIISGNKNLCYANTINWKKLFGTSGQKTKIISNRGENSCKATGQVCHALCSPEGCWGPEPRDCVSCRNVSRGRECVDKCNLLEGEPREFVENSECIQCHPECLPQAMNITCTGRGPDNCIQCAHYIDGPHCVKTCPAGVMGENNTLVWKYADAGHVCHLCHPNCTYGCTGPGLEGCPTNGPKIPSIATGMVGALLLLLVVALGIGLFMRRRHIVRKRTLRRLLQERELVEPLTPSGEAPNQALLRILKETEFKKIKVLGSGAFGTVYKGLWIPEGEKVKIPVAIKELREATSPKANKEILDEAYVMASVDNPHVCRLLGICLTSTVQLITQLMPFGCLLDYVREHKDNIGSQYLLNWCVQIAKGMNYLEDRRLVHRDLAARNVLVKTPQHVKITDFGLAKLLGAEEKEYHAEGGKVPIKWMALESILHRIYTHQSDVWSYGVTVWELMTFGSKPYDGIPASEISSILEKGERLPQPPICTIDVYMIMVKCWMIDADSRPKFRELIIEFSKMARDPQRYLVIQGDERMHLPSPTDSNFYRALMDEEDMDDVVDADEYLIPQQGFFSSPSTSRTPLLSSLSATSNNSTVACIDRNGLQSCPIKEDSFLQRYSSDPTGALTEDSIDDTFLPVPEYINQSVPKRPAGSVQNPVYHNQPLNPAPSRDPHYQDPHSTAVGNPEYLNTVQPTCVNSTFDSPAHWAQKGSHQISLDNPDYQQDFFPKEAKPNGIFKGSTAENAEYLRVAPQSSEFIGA
Insulin receptor, sequence (P06213 28-758 limits assumed): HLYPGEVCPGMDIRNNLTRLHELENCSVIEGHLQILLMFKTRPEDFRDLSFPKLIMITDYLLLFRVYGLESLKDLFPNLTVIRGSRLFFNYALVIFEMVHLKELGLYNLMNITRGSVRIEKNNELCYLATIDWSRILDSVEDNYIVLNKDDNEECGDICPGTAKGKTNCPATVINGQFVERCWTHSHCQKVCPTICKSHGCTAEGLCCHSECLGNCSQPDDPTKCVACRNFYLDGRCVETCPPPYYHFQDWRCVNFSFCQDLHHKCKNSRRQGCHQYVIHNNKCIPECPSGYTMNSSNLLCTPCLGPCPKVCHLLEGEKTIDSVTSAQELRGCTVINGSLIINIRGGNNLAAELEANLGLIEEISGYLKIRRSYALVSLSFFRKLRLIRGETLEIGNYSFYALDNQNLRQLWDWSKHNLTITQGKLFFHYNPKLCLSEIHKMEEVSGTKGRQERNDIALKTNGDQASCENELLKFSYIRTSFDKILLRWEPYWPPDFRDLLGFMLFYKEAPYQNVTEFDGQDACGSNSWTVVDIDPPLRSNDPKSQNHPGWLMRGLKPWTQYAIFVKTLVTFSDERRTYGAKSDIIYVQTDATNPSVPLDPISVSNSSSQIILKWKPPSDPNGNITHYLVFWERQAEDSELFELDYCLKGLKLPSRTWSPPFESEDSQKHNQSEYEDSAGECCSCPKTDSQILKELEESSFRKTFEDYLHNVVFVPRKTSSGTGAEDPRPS
Insulin receptor, sequence (P06213 763-1382 limits assumed): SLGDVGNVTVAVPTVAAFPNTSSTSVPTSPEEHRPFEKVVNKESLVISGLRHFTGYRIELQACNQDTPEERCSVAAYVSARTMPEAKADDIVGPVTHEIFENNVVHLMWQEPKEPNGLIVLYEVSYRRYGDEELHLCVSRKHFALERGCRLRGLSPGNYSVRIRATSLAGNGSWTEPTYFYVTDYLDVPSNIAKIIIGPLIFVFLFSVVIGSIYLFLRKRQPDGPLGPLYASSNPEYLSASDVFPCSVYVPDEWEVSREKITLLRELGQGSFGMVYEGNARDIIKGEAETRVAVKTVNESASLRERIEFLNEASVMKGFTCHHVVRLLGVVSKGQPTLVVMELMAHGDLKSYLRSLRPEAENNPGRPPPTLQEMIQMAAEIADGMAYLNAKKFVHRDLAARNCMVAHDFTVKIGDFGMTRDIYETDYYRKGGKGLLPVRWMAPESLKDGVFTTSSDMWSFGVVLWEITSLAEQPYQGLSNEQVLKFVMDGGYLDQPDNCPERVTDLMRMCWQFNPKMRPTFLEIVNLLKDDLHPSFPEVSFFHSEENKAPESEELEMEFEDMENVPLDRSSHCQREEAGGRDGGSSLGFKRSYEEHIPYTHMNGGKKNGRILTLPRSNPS

Regarding `Cc1cc(C)c(C)c(-c2cc3cnc(N)nc3nc2NC(=O)NC(C)(C)C)c1C`, the IC50 (in data set [1]; in data set [2]; in [3]; at Insulin receptor) was more than 50000 nM in each case.
The compound `CN1CCN(CCCNc2ncc3cc(-c4c(Cl)cccc4Cl)c(NC(=O)NC(C)(C)C)nc3n2)CC1` returned an IC50 against Insulin receptor of more than 50000 nM. In addition, the half-life in data set [4] was 2.69 h.
With `COc1cc(OC)cc(-c2cc3cnc(N)nc3nc2NC(=O)NC(C)(C)C)c1`, the IC50 in [5] is 60 nM.
Turning to `Cc1cc(C)c(C)c(-c2cc3cnc(NCCCN4CCN(C)CC4)nc3nc2NC(=O)NC(C)(C)C)c1C`, the IC50 was 4300 nM in [1]; 140 nM in data set [5]; more than 50000 nM in [2]; 7000 nM in data set [6]; 2200 nM in data set [3]; more than 50000 nM on Insulin receptor.
As for `CCNC(=O)Nc1nc2nc(N)ncc2cc1-c1c(Cl)cccc1Cl`, the IC50 in [1] is 3730 nM; in data set [5], 130 nM; in data set [2], 1300 nM; in data set [6], 1360 nM; at Insulin receptor, more than 50000 nM.
On to `CC(C)(C)NC(=O)Nc1nc2nc(N)ncc2cc1-c1ccccc1`, for which the 50% inhibitory concentration (IC50) in data set [7] is 3710 nM; in data set [8] it was 5530 nM; in data set [2], 4670 nM; in [3], more than 50000 nM; at Insulin receptor, more than 50000 nM.
As for `CCN(CC)CCCNc1ncc2cc(-c3c(Cl)cccc3Cl)c(NC(=O)NC(C)(C)C)nc2n1`, the IC50 is 1800 nM in data set [1]; 82 nM in data set [5]; 660 nM in [2]; 6200 nM in data set [6]; more than 50000 nM at Insulin receptor.
As to `CCN(CC)CCCCNc1ncc2cc(-c3c(Cl)cccc3Cl)c(NC(=O)NC(C)(C)C)nc2n1`, the IC50 is 450 nM in [1]; 310 nM in data set [2]; 44 nM in [3]; 300 nM in data set [9]; more than 50000 nM on Insulin receptor.
As for `CCNC(=O)Nc1nc2nc(NCCCCN(CC)CC)ncc2cc1-c1c(Cl)cccc1Cl`, the results for the IC50 in data set [1] and in data set [2] were 250 nM and 190 nM, respectively.
Regarding `CC(C)(C)NC(=O)Nc1nc2nc(N)ncc2cc1-c1c(Cl)cccc1Cl`, the IC50 was 630 nM in data set [1]; 130 nM in data set [5]; 1110 nM in [2]; 220 nM in data set [3]; more than 50000 nM against Insulin receptor.
For `Cc1cccc(C)c1-c1cc2cnc(N)nc2nc1NC(=O)NC(C)(C)C`, the IC50 in data set [5] is 400 nM; in data set [6], 610 nM; on Insulin receptor it was more than 50000 nM.
